Values quoted from earlier work in patent publication US20060211721A1, “Nutraceutical formulation of a cognitive enhancement system” (priority 2005, published 2006).

Conditions: background statement

C/C=C1\[C@H]2C=C(C)C[C@]1(N)c1ccc(=O)[nH]c1C2 [huperzine, Huperzine A]
oral bioavailability: high oral bioavailability
penetration through the blood brain barrier: good penetration through the blood brain barrier
